# Results from US6468983B2, “RNase L activators and antisense oligonucleotides effective to treat telomerase-expressing malignancies” (The Cleveland Clinic Foundation, priority 1997, dated 2002).
# What was measured:
# [1] = tested on: normal diploid human fibroblasts (MRC5); assay: Viable cell count, daily oligonucleotide plus lipofectamine; assay type: cell-based; conditions: MRC5, 0.5 micromolar daily plus lipofectamine, 8 days
# Protocol: (§1) Cells (10,000/well) were seeded on 96 well tissue culture dishes, and treated every 24 hours. A 10× concentrated mixture of oligonucleotides plus lipofectamine in water was prepared containing 5 micromolar oligonucleotide and 80 microgram per ml lipofectamine™ (Gibco/BRL) and incubated for 10 min at room temperature. Media was removed from the cells, 10 microliters of the oligonucleotide/lipofectamine mixture was added directly to the cultured cells followed by 90 microliters of media plus serum. The media was changed with oligonucleotide/lipofectamine treatments every 24 h. Cells were passaged when the control cells reached confluency, and viable cells were counted after staining with Trypan Blue (GibcoBRL). The numbers of cells treated only with lipofectamine were used as the control to calculate percentages of cell survival or viability.
# (§2) For the experiments described below, lipofectamine was used to enhance the uptake of the oligonucleotides into cells (Williams et al., 1996, Leukemia 10:[…]). […] Using this protocol for 8 days, SpA4-anti-hTR reduced cell viability by 9% and 35% in the normal human lung cell line, WI 38, and in normal diploid human fibroblasts (MRC5), respectively, while causing a 90% reduction in the viability of U373 cells.
# [2] = tested on: normal human lung cell line, WI 38; assay: as above; assay type: cell-based; conditions: WI 38, 0.5 micromolar daily plus lipofectamine, 8 days
# Protocol: as §1, §2
# telomerase RNA (hTR) = assay: RT-PCR for telomerase RNA in oligonucleotide-treated U251-MG cells; assay type: cell-based, human; conditions: oligonucleotide 5 μM, 5 hours treatment
# Protocol: Chimeric oligonucleotides were synthesised on solid supports and purified as described previously (Torrence et al 1993; Lesiak et al 1993; Xiao et al 1994, 1996; Cirino et al 1997). Tumor cells were seeded at 3×10^5 cells/well (3 ml) in 6-well plates and incubated overnight at 37° C. Cells were then treated with oligonucleotides (5 μM). Five hours later total RNA was isolated by using Trizol solution (GIBCO BRL, Grand Island, N.Y.). Expression of telomerase RNA was determined with RT-PCR. The RNA was reverse transcribed into complementary DNA (cDNA) with random oligos used as a primer, and then the cDNA was diluted three times with buffer 10×PCR buffer (Perkin-Elmer, Norwalk, Conn.) at a final concentration of 1:4. The DNA at each dilution was amplified using primers to antisense and sense sequences on opposite sides of the human telomerase RNA sequence, 5′-[…]-3′ (SEQ ID NO:4) and 5′[…]-3′ […], respectively, or to the GAPDH coding sequence, 5′-[…]-3′ […] and 5′[…]-3′ (SEQ ID NO:7), respectively, producing DNA fragments of 400 bp for telomerase cDNA and 508 bp for the GAPDH cDNA, respectively. The PCR went for 30 cycles (94° C., 1 min; 55° C., 1 min; 72° C., 2 min) for telomerase and 30 cycles (94° C., 1 min; 60° C., 1 min; 74° C., 3 min) for GAPDH. The PCR products were analyzed by 1.2% agarose gel electrophoresis and ethidium bromide staining.
# Aliquots of U251-MG cells were treated with the “active” oligonucleotide and the two controls for 5 hours. RNA was then prepared from these cells and subjected to RT-PCR to detect telomerase RNA. […] In contrast, telomerase RNA (hTR) was present in cells treated with the control oligonucleotides; spA2-anti-hTR and spA4-anti-(M6)hTR. Thus, hTR could be selectively destroyed in U251-MG cells. Since the RT-PCR assay is not quantitative, it was not possible to assess whether treatment with the spA2-anti-hTR , which has the fully complementary target sequence, had any antisense effect by itself (see below). […]
# [3] = tested on: breast cancer cell line, MDA468; assay: Viable cell count, daily oligonucleotide plus lipofectamine; assay type: cell-based, human; conditions: MDA468, 0.5 micromolar daily plus lipofectamine
# Protocol: as §1
# (§3) Similarly, the viability of the breast cancer cell line, MDA468, was reduced by 64% by SpA4-anti-hTR, while the control oligonucleotides reduced cell viability by <20% (FIG. 6). Viability of the human melanoma cell line, A375, was reduced by 43% in three days by SpA4-anti-hTR, while the control oligonucleotides had no effect (FIG. 7). […] Viability of a third human melanoma cell line, SK-MEL-5, was reduced by 43% by SpA4-anti-hTR, with minimal effects by the control oligonucleotides (FIG. 7). Two prostate tumor cells lines, PC3 and DU145, were suppressed by SpA4-anti-hTR treatments by 45% and 60%, respectively (FIGS. 6 and 10). […] The viability of the malignant glioma cell line, U373, was reduced by about 60% in 3 days, with intermediate effects by the control oligonucleotides (FIG. 6). Therefore, the proliferation and survival of every tumor cell type tested was inhibited by SpA4-anti-hTR. […] In contrast, there was no apoptosis detected in the control cells treated with lipofectamine without oligonucleotide (FIG. 12 upper panel).
# [4] = tested on: prostate tumor cell line DU145; assay: as above; assay type: cell-based, human; conditions: DU145, 0.5 micromolar daily plus lipofectamine
# Protocol: as §1, §3
# [5] = tested on: prostate tumor cell line PC3; assay: as above; assay type: cell-based, human; conditions: PC3, 0.5 micromolar daily plus lipofectamine
# Protocol: as §1, §3
# [6] = tested on: renal cell carcinoma cell line, RCC; assay: as above; assay type: cell-based, human; conditions: 0.5 micromolar daily plus lipofectamine
# Protocol: as §1, §3
substance,measurement,setting,value
"Sp5′A2′p(5′A2p)3-[(Bu)p]2-5′GCG CGG GGA GCA AAA GCA C3′-3′T5′ (antisense GCGCGGGGAGCAAAAGCAC; 5'-thiophosphate 2-5A tetramer, butanediol linkers, 3'-3'T cap, chemistry not fully specified) [spA4-anti-hTR, 2-5A tetramer linked by butanediol linkers to 19-mer antisense against human telomerase RNA nucleotides 76 to 94]",reduction in cell viability,[1],35%
same,reduction in cell viability,[2],9%
same,telomerase RNA (hTR) detected by RT-PCR,telomerase RNA (hTR),no detectable telomerase RNA
same,effect on growth (in words),[3],specifically suppressed growth
same,reduction in viability,[3],64%
same,effect on growth/viability (in words),[4],specifically suppressed growth
same,suppression of cells,[4],60%
same,effect on growth/viability (in words),[5],specifically suppressed growth
same,suppression of cells,[5],45%
same,effect on growth/viability (in words),[6]; 3 days,specifically suppressed growth
same,reduction in viability,[6]; three days,61%
